Data reported in patent US10233201B2, “Class of HDAC inhibitors expands the renal progenitor cells population and improves the rate of recovery from acute kidney injury” (University of Pittsburgh—Of the Commonwealth System of …, priority 2012, dated 2019).

Columns and labels:
[1] = tested on: renal progenitor cells (lhx1a expression); assay: In situ hybridization for lhx1a expression in 10-somite embryos (renal progenitor cell expansion); type: in vivo; settings: for lhx1a expansion class, 800 nM: 800 nM from 2 hpf; on lhx1a expansion class, 800 nM: key: effective (+); partially effective (+/−); ineffective (−); Analogs that killed all embryos at a given concentration before reaching 10 somites are listed as XX
Method in brief: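 Zebrafish embryos treated with compound, then colorimetric whole-mount in situ hybridization for lhx1a mRNA at 10-somite stage (hybridization 65 °C). Percent embryos with expanded kidney field counted manually; EC50 read as the 50% point of the plotted curve.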

renal progenitor cells = assay: Tg(lhx1a:EGFP) reporter: renal progenitor cell counting; type: in vivo, zebrafish
Protocol: Tg(lhx1a:EGFP)^pt303 embryos were treated with 3 μM PTBA and then fixed in 4% paraformaldehyde in PBS for 8 hours at 4° C. Embryos were washed in PBS containing 0.1% TWEEN 20 (PBT) and incubated in 1 μg/ml DAPI in PBT for 30 minutes at room temperature. Embryos were flat-mounted on glass slides with Cytoseal 60 and imaged with either a Leica M205 FA epifluorescent microscope or an Olympus FluoView 1000 confocal microscope. Confocal projections contained stacks of six 3 μm images. A predefined box was positioned at the most posterior region of the notochord and included the most lateral GFP-positive cell in a kidney field. The cells that were positive for both GFP and DAPI within this box were counted manually with the aid of ImageJ. Variances of the control and PTBA-treated groups were compared by F test and found to be unequal. Therefore, a two-tailed t test with unequal variance was used to determine significance (α=0.05).
For all second-generation compounds, the cad17:EGFP transgene is used as the primary readout to assay for expansion of kidney field (FIG. 35). PTBA analogues that expand cad17:EGFP expression are subjected to a secondary screen. […] Such compounds are assessed in target efficacy and toxicity assays.

pronephros = assay: Pronephric markers at 48 hpf (cdh17, NaK-ATPase, wt1a, slc4a4, slc12a1); type: in vivo, zebrafish; settings: 3 μM
Protocol: (§1) PTBA was synthesized as described below. Hydroxyurea and aphidicolin were obtained from Sigma-Aldrich.
(§2) In situ hybridization and immunocytochemistry: In situ hybridization was performed as previously described with some modifications. 142 Hybridization temperature was 65° C. Embryos were blocked in 2% blocking reagent (Roche) with 5% sheep serum in MAB (100 mM maleic acid and 150 mM NaCl [pH 7.5]). Whole-mount immunocytochemistry with 1:25 mouse anti-α6F antibody (Developmental Studies Hybridoma Bank) and 1:100 Cy3 secondary antibody (Jackson ImmunoResearch) was performed as described previously. 108 Embryos were embedded in JB-4 for sectioning per the manufacturer's instructions (Polysciences), sectioned at 5 μm, and mounted with Cytoseal 60 (Richard-Allan Scientific).

[2] = tested on: myod1 (somites), fli1a (vasculature), ntla (notochord); assay: In situ hybridization for mesodermal markers myod1, fli1a, ntla in 10-somite embryos; type: in vivo, zebrafish
Protocol: as §1, §2

cyp26a1, cmlc2 = assay: In situ hybridization for RA-responsive genes in 18-somite embryos; type: in vivo, zebrafish; settings: 3 μM
Protocol: as §2
HDACis are believed to lower the threshold of RA necessary to activate transcription. If PTBA treatment facilitates activation of the RA pathway, then expression of genes responsive to RA signaling should change. […] In a previous study, cmlc2 expression was assessed for RAdependent effects in 18-somite embryos (Keegan, B. R., Feldman, J. L., Begemann, G., Ingham, P. W. & Yelon, D. Retinoic acid signaling restricts the cardiac progenitor pool. Science 307, 247-249, (2005)), therefore embryos were collected at the 18-somite stage for continuity. […]

[3] = tested on: human HDACs (HeLa cell nuclear extract); assay: Fluorescence histone deacetylation assay with HeLa cell nuclear extract; type: biochemical
histone H4 acetylation = assay: Histone H4 hyperacetylation Western blot in embryos; type: in vivo, zebrafish; settings: 24 hpf embryos treated 6 hours; 3 μM PTBA, 25 μM PBA, 200 nM TSA
Protocol: It was next determined whether the HDACi function of PTBA was quantifiable in vivo. 24 hpf embryos were treated with 3 μM PTBA, 25 μM PBA, or 200 nM TSA for 6 hours. Protein extracts were prepared and immunoblotted with an anti-hyperacetylated histone H4 antibody. […] Furthermore, increasing the compound concentration caused a corresponding increase in hyperacetylation (FIG. 21).
SDS-PAGE and Western blotting were performed as described previously with some modifications (Noel, E. S. et al. Organ-specific requirements for Hdac1 in liver and pancreas formation. Dev Biol 322, 237-250, (2008)). Proteins were separated on 18% SDS-PAGE gels. Membranes were incubated at 4° C. overnight with 1:1000 anti-hyperacetylated histone H4 antibody (06-946, Millipore) or 1:1000 anti-α-tubulin antibody (Sigma-Aldrich) in PBT containing 5% nonfat milk.

Compound | lhx1a expansion class, 800 nM [1] | effective dose for the renal progenitor assay ([1]; zebrafish, in vivo) [nM] | lowest dose at which expansion of the renal progenitor cell population starts to be seen (renal progenitor cells; lhx1a:EGFP transgene, data not shown) [nM] | embryos with expanded lhx1a expression ([1]; 0.5% DMSO at 5 hpf, 3 μM PTBA at 8 hpf) [%] | responders at 0.8 µM ([1]; Danio rerio, 800 nM, read-out: embryos with expanded lhx1a expression (% expansion)) [%] | embryos with expanded lhx1a expression ([1]; injected with 200 pg DN-RARα mRNA, then 3 μM PTBA at 5 hpf) [%] | increase in the number of renal progenitor cells (renal progenitor cells; 3 μM, 10-somite Tg(lhx1a:EGFP)pt303 embryos) [fold] | embryos with expansion of cdh17 (pronephros) [%] | expansion of slc4a4 (pronephros) [%] | expansion of slc12a1 (pronephros) [%] | expansion of wt1a (pronephros) [%] | embryos with unchanged fli1a expression ([2]; 3 μM) [%] | embryos with decreased myod1 expression ([2]; 3 μM PTBA (slightly decreased), 25 μM PBA, 200 nM TSA) [%] | embryos with increased ntla expression ([2]; 3 μM PTBA, 25 μM PBA) [%] | embryos with decreased cmlc2 expression (cyp26a1, cmlc2) [%] | embryos with increased cyp26a1 expression (cyp26a1, cmlc2) [%] | HDAC activity, % of the control value ([3]; 5 mM compound, 10 μg HeLa extract) [%] | reduction of HDAC activity ([3]; millimolar concentrations) [%] | histone H4 hyperacetylation (histone H4 acetylation)
COC(=O)CCCSc1ccccc1 [UPHD-00025, methyl 4-(phenylsulfanyl) butanoate] | +/− | ~800 | 600 | – | – | – | – | – | – | – | – | – | – | – | – | – | – | – | –
O=C(O)CCCSc1ccccc1 [PTBA, 4-(phenylthio)butanoic acid] | +/− | – | – | 97 | < 25 | 19 | 2.4 | 89 | 92 | 64 | 74 | 97 | 95 | 88 | 100 | 100 | 30 | 70 | hyperacetylation was observed
